These results are taken from paper PMC5374206, “Anti-bacterial and Anti-biofilm Evaluation of Thiazolopyrimidinone Derivatives Targeting the Histidine Kinase YycG Protein of Staphylococcus epidermidis” (Frontiers in Microbiology, 2017).

One series deals with S. aureus ATCC 49230. Description: MIC tube-dilution assay. The settings on record: Staphylococcus aureus, ATCC49230. In kind it is cell-based. The protocol: (§1) The MIC assays of the derivatives of compound 5 against S. epidermidis, S. aureus, MRSA and E. coli were performed by using the methods described previously by Wiegand et al. ([2008]). In brief, two-fold serial dilutions of the derivatives were prepared in tubes containing 4 mL MHB medium, yielding final concentrations from 200 to 0.78 μM. Bacterial cultures were grown overnight and adjusted so that the bacterial suspension turbidity was equivalent to a 0.5 McFarland standard (~1 × 10^8 CFU/mL) and further diluted to 1:200 into MHB medium. The contents in the tubes were mixed thoroughly and incubated at 37°C with shaking at 220 rpm for 16–20 h. The MIC endpoint was defined as the lowest concentration at which there was no visible growth in the tubes. The MBC values were assessed by plating 100 μL samples from each negative (no visible bacterial growth) culture tube from the MIC assays onto blank MHB agar plates. After incubation at 37°C for 24 h, the bacterial colonies on the plates were counted. The MBC was the concentration at which a 99.9% reduction of the original inoculum was observed (Pridmore et al., [2011]). In this assay, all the experiments were performed three times.

In series [1] the test system is S. epidermidis ATCC 12228. Briefly: MIC tube-dilution assay. The format is cell-based. The settings on record: Staphylococcus epidermidis, ATCC12228. The protocol: as §1
The subject of series [2] is S. epidermidis ATCC 35984 biofilm formation. Briefly: Flow-based biofilm inhibition assay (BioFlux). In kind it is cell-based, Staphylococcus epidermidis. The note with it: 2 × MIC; shear 0.15 dyn/cm^2; 16 h; result in words. The protocol: The microfluidic channels of BioFlux 48-well plates (Fluxion Biosciences, South San Francisco, CA, USA) were primed with pre-warmed (37°C) TSB medium from the outlet well at a shear setting of 2 dyn/cm^2 for 10 min. Overnight bacterial culture of S. epidermidis ATCC 35984 was subcultured to mid-log phase and then diluted 1:200 in MHB medium, bacteria were seeded from the outlet well into the channel and viewing window at a shear setting of 2 dyn/cm^2 for 3 s. […] Growth of the biofilms was monitored for up to 16 h. Images of different stages were automatically acquired at 10 min intervals with bright-field illumination.

For another series, the target named is T1, YycG′ protein (Staphylococcus epidermidis, UniProt Q5HK19).
T1 construct: made in house; host or cells: E. coli BL21(DE3)
T1 sequence (Q5HK19 384-602 limits assumed): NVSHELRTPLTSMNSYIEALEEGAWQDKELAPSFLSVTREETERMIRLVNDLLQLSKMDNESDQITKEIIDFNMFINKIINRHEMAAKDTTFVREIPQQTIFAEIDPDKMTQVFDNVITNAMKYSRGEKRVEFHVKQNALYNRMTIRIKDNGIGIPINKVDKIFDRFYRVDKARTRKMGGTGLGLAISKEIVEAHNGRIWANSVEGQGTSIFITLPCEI
Briefly: Inhibition of YycG′ autophosphorylation (Kinase-Glo Luminescent Kinase Assay). The note with it: 4 μM ATP; for inhibition of the enzymatic activity of YycG′ protein: 100 μM derivative, 2 μg YycG′ protein; for IC50: Kinase-Glo, 2 μg YycG′, read-out: IC50 (inhibition of autophosphorylation of recombinant YycG′). In kind it is biochemical. The procedure: The construction of the recombinant plasmid pET28a-YycG′ (containing the HATPase_c and HisKA domains of YycG) has been previously described (Liu et al., [2014]). After being used to transform E. coli strain BL21(DE3), this recombinant plasmid was induced to express YycG′ protein by 0.4 mM isopropyl-1-thio-β-D-galactopyranoside at 21°C for 12 h. Then, the bacterial cells were disrupted by sonication and centrifuged, the supernatant was purified by Ni–NTA agarose (Qiagen, Los Angeles, CA, USA). The inhibitory activities of the compound 5 derivatives on the ATPase activity of the YycG′ protein were measured using the Kinase-Glo™ Luminescent Kinase Assay (Promega, Madison, WI, USA). Briefly, 2 μg purified YycG′ protein was pre-incubated with a series of dilutions of the derivatives in reaction buffer [40 mM Tris (pH 7.5), 20 mM MgCl2 and 0.1 mg/ml BSA] at room temperature for 30 min, 4 μM ATP was added and incubated for 30 min at room temperature, then Kinase-Glo™ Reagent was added to detect the remaining amount of ATP, as reflected by luminescence intensity (RLU). In parallel, YycG′ protein with no addition of the derivatives was used as the control and ATP only was used as a blank. The rate of inhibition of protein phosphorylation (Rp) by the derivatives was calculated by the following equation: Rp = RLU(YycG^′+derivative+ATP+Kinase−Glo™)−RLU(YycG^′+ATP+Kinase−Glo™)/RLU(ATP+Kinase−Glo™)−RLU(YycG^′+ATP+Kinase−Glo™) × 100 IC50 (the concentration resulting in 50% inhibition of YycG′ protein autophosphorylation) was obtained by using Origin v7.0 software (OriginLab, Northampton, USA).
A general note: Kinase-Glo measures the ATP left after a reaction by luminescence.

Series [3] relates to Enterococcus faecalis OG1RF. Description: Standard tube-dilution assay against Enterococcus faecalis. The format is cell-based. The settings on record: result in words.
In series [4] the test system is MRSA strain 226 young biofilms. Briefly: Microtiter plate assay of 6 h young biofilms of MRSA. In kind it is cell-based, S. aureus. The protocol: The biofilm-killing effect for immature (6 h old) biofilms was determined in TSB using a semi-quantitative assay. An overnight culture was diluted 1:200 into TSB medium with 0.25% glucose, and incubated in polystyrene 96-well plates at 37°C for 6 h. Biofilms were exposed to two-fold serial dilutions of the derivatives, and the plates were incubated for another 18 h at 37°C. Following the incubation and removal of non-adherent cells with 200 μl of phosphate-buffered saline, adherent biofilms were fixed with 95% methanol and stained with 2% (w/v) crystal violet. Then, the wells were washed three times with sterile distilled water and the plates were air dried for 2 h. The optical density of each well at 570 nm was determined using a 96-well plate spectrophotometer (DTX880, Beckman Coulter, USA).

Series [5] relates to S. epidermidis ATCC 35984. Description: MIC and MBC tube-dilution assay. The note with it: Staphylococcus epidermidis; for MBC: ATCC35984, 99.9% reduction of inoculum; for MIC: ATCC35984, MHB, 16–20 h. The format is cell-based. The protocol:
as §1

Series [6] is described as follows: Erythrocyte hemolysis assay. The note with it: human, erythrocytes (5% suspension), 37°C; for hemolysis at 1 h, 200 µM: at 200 μM; for hemolysis at 1 h: at MIC (against S epidermidis ATCC 35984). The format is cell-based. The protocol: Hemolytic activities of the derivatives were measured on healthy human erythrocytes. A pure suspension of erythrocytes was obtained by washing a blood sample with sterile 0.9% NaCl saline solution. Erythrocytes were resuspended in normal saline to give a 5% solution, then treated with MIC, 4 × MIC or 200 μM of the derivatives for 1 h at 37°C in 96-well microtiter plates. After the incubation and centrifugation at 1,000 g for 10 min, supernatants were transferred to another sterile plate and the absorbance at 570 nm was measured on a spectrophotometric microplate reader. A positive control (100% hemolysis) and a negative control (0% hemolysis) were achieved by incubating with 1% Triton-X 100 and 0.1% DMSO, respectively. Each assay was performed in triplicate and repeated three times.

Converted amounts (≈) assume the structure as drawn. “Also recorded” adds a separate entry of the source.

In general, MIC refers to the lowest concentration that inhibits growth of the organism. Read a low MIC as greater potency. As a reminder, the IC50 is the concentration needed to halve the response being measured. By MBC is commonly meant the lowest tested concentration that kills the bacteria rather than only halting them. Lower therefore signals greater bactericidal potency. Take `CCOC(=O)C1=C(c2ccccc2)N=c2sc(=Cc3ccc(-c4cccc(C(=O)O)c4)o3)c(=O)n2C1c1ccc(F)cc1` (centres unmarked) [H5-32, 2-[5-(3-carboxy-phenyl)-furan-2-ylmethylene]-5-(4-fluoro-phenyl)-3-oxo-7-phenyl-2,3-dihydro-5H-thiazolo[3,2-a]pyrimidine-6-carboxylic acid ethyl ester]: it took 3.13 µM (≈ 1.86 µg/mL) to inhibit growth with S. aureus ATCC 49230 (MIC). In series [1], this compound yielded a minimum inhibitory concentration (MIC) of 6.25 µM (≈ 3.72 µg/mL). In series [2], the “biofilm formation under shearing forces” value is “significant decrease in the biofilm formation; also recorded: strongly inhibited biofilm formation”. Also, at YycG′ protein, the “inhibition of the enzymatic activity of YycG′ protein” value (“inhibition” for short) was determined as 55.61% and the IC50 is 83.9 µM. The anti-bacterial activity entry in series [3] is on record as “displayed anti-bacterial activities”. The minimal biofilm-killing concentration in series [4] was 200 µM. In series [5], this compound had an MBC of 100 µM (≈ 59.5 µg/mL) and an MIC of 3.13 µM (≈ 1.86 µg/mL). In series [6], this compound registered a hemolysis at 1 h, 200 µM of 0.24 ± 0.05% and a hemolysis at 1 h of 0.15 ± 0.05%.
In the series on S. aureus ATCC 49230, `O=C(O)c1cccc(-c2ccc(C=c3sc4n(c3=O)C(c3ccc(F)cc3)C=C(c3ccccc3)N=4)o2)c1` (centres unmarked) [H5-33, 3-{5-[5-(4-fluoro-phenyl)-3-oxo-7-phenyl-5H-thiazolo [3,2-a]pyrimidin-2-ylidenemethyl]-furan-2-yl}-benzoic acid] had an MIC of 3.13 µM (≈ 1.64 µg/mL). The same compound returned an MIC in series [1] of 3.13 µM (≈ 1.64 µg/mL). In addition, the “biofilm formation under shearing forces” value in series [2] is listed as “significant decrease in the biofilm formation; also recorded: strongly inhibited biofilm formation”. On YycG′ protein, the “inhibition” value stood at 77.04% and the IC50 amounted to 64.9 µM. Besides, the anti-bacterial activity entry in series [3] is listed as “displayed anti-bacterial activities”. This compound also returned a minimal biofilm-killing concentration in series [4] of 200 µM. In series [5], this compound had an MBC of 12.5 µM (≈ 6.53 µg/mL) and an MIC of 3.13 µM (≈ 1.64 µg/mL). In series [6], this compound came in with a hemolysis at 1 h, 200 µM of 0.32 ± 0.05% and a hemolysis at 1 h of 0.15 ± 0.06%.
Turning to `CCOC(=O)C1=C(c2ccccc2)N=c2sc(=Cc3ccc(-c4ccc(C(=O)O)cc4)o3)c(=O)n2C1c1ccc(Cl)cc1` (centres unmarked) [H5-34, 2-[5-(4-carboxy-phenyl)-furan-2-ylmethylene]-5-(4-chloro-phenyl)-3-oxo-7-phenyl-2,3-dihydro-5H-thiazolo[3,2-a]pyrimidine-6-carboxylic acid ethyl ester], the lowest concentration to inhibit growth against S. aureus ATCC 49230 (MIC) was 3.13 µM (≈ 1.91 µg/mL). This compound returned an MIC in series [1] of 3.13 µM (≈ 1.91 µg/mL). In addition, in series [2], the “biofilm formation under shearing forces” value is recorded as “significant decrease in the biofilm formation; also recorded: strongly inhibited biofilm formation”. For the same compound, on YycG′ protein, the “inhibition” value was determined as 80.72% and the half-inhibitory concentration (IC50) stood at 61.9 µM. In addition, the anti-bacterial activity result in series [3] was “displayed anti-bacterial activities”. Moreover, the minimal biofilm-killing concentration in series [4] came to 200 µM. Moreover, in series [5], the MBC stood at 25 µM (≈ 15.3 µg/mL) and the minimal inhibitory concentration (MIC) came to 3.13 µM (≈ 1.91 µg/mL). Also, in series [6], the hemolysis at 1 h, 200 µM was found to be 0.19 ± 0.01% and the hemolysis at 1 h was 0.22 ± 0.57%.
Compound `CCOC(=O)C1=C(c2ccccc2)N=c2sc(=Cc3ccc(-c4ccc(C(=O)O)cc4)o3)c(=O)n2C1c1ccc(F)cc1` (centres unmarked) [H5-35, 2-[5-(4-carboxy-phenyl)-furan-2-ylmethylene]-5-(4-fluoro-phenyl)-3-oxo-7-phenyl-2,3-dihydro-5H-thiazolo[3,2-a]pyrimidine-6-carboxylic acid ethyl ester] registered a minimum inhibitory concentration (MIC) with S. aureus ATCC 49230 of 6.25 µM (≈ 3.72 µg/mL). Moreover, in series [1], it took 3.13 µM (≈ 1.86 µg/mL) to inhibit growth (MIC). The “biofilm formation under shearing forces” value in series [2] is given as “significant decrease in the biofilm formation; also recorded: strongly inhibited biofilm formation”. Further, on YycG′ protein, the “inhibition” value is given as 63.94% and the IC50 was 78.2 µM. Further, in series [3], the anti-bacterial activity entry is given as “displayed anti-bacterial activities”. For the same compound, the minimal biofilm-killing concentration in series [4] turned out to be 200 µM. In series [5], this compound gave a minimal bactericidal concentration (MBC) of 12.5 µM (≈ 7.43 µg/mL) and an MIC of 3.13 µM (≈ 1.86 µg/mL). Besides, in series [6], the hemolysis at 1 h, 200 µM turned out to be 0.27 ± 0.1% and the hemolysis at 1 h is 0.17 ± 0.05%.
